How the values were obtained:
[1] = biological target: T1, HsCDK5/p25 (Homo sapiens, UniProt Q00535); experiment: protein kinase assay, [γ-33P] ATP; format: biochemical
T1 construct: made in house
Protocol: (§1) Then, we evaluated the intermediates salts 6a–f and fourteen final compounds 9a–n on four protein kinases: HsCDK5-p25 (cyclin-dependant kinase 5-p25), SsGSK-3α/β (glycogen synthase kinase-3α/β) SsCK1δ/ε (Caseine kinase 1) and HsHaspin as an essential mitotic kinase. All assays were run in the presence of 15 μM of ATP and appropriate substrates. IC50 values were determined from dose-response curves. Concerning the library of the fourteen (5Z) 3-(4-arylmethylamino)butyl-5-arylidene-2-thioxo-1,3-thiazolidine-4-ones 9a–n and also the six diamines salts 6a–f, the results are given in Table 3. […] It is interesting to note that these two compounds are respectively substituted with an hydroxyl function on para-position of the 5-arylidene moiety and also with a similar bulky group (1,3-benzodioxol-5-yl for 9j and 2,3-dihydro-benzo[1,4]dioxin-6-yl for 9n) on the arylmethylamino moiety grafted on the N-3 butyl chain.
(§2) Kinase activities for each enzyme were assayed in buffer A (25 mM Tris-HCl pH 7.5, 10 mM MgCl2, 1 mM EGTA, 1 mM DTT, 50 µg/mL Heparin, BSA 0.15 mg/mL) or B (60 mM β-glycerophosphate, 30 mM p-Nitrophenylphosphate, 25 mM MOPS, 5 mM EGTA, 15 mM MgCl2, 1 mM DTT, 0.1 mM Na vanadate), with their corresponding substrates, in the presence of 15 µM [γ-^33P] ATP (3000 Ci/mmol; 10 mCi/mL) in a final volume of 30 µL. After 30 min incubation at 30 °C, the reaction was stopped by harvesting, using a FilterMate harvester (Packard, Meriden, CT, USA), onto P81 phosphocellulose papers (GE Healthcare, Velizy-Villacoublay, France) which were washed in 1% phosphoric acid. Scintillation fluid was added and the radioactivity measured in a Packard counter. Blank values were subtracted and activities calculated as pmoles of phosphate incorporated during the 30 min incubation. The activities were expressed in a percentage of the maximal activity, i.e., in the absence of inhibitors. Controls were performed with appropriate dilutions of DMSO. CK1 and Haspin peptide substrates were obtained from Proteogenix (Oberhausbergen, France).
CDK5/p25 (human, recombinant) was prepared as previously described. […]

[2] = biological target: T2, HsHaspin (Homo sapiens, UniProt Q8TF76); experiment: protein kinase assay, [γ-33P] ATP; format: biochemical
T2 construct: HsHaspin-kd aa 470 to 798; GST (from vector pGEX-6P-3; tag and N-terminal position are own knowledge of the vector) (N); made in house; host or cells: Escherichia coli BL21-KRX
T2 sequence (Q8TF76 470-798): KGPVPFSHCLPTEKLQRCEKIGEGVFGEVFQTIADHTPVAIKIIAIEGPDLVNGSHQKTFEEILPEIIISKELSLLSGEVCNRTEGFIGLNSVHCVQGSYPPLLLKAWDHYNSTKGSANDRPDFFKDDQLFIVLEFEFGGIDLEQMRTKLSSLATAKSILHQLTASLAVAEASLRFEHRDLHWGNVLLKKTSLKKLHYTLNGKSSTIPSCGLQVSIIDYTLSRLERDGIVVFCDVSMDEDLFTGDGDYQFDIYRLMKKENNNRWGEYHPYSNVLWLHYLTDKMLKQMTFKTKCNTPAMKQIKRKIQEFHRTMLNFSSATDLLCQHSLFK
Protocol: Then, we evaluated the intermediates salts 6a–f and fourteen final compounds 9a–n on four protein kinases: HsCDK5-p25 (cyclin-dependant kinase 5-p25), SsGSK-3α/β (glycogen synthase kinase-3α/β) SsCK1δ/ε (Caseine kinase 1) and HsHaspin as an essential mitotic kinase. […] IC50 values were determined from dose-response curves.
as §2, with “ATP” for “Kinase activities for each enzyme were assayed in buffer A (25 mM Tris-HCl pH 7.5, 10 mM MgCl2, 1 mM EGTA, 1 mM DTT, 50 µg/mL Heparin, BSA 0.15 mg/mL) or B (60 mM β-glycerophosphate, 30 mM p-Nitrophenylphosphate, 25 mM MOPS, 5 mM EGTA, 15 mM MgCl2, 1 mM DTT, 0.1 mM Na vanadate), with their corresponding substrates, in the presence of 15 µM [γ-^33P] ATP”
Haspin kinase domain (HsHaspin-kd aa 470 to 798) encoding cDNA, obtain by RT-PCR, was cloned into pGex-6P-3. The fusion protein was expressed in Escherichia coli strain BL21-KRX (Promega, Madison, WI, USA) and purified by affinity chromatography on glutathione-agarose beads (Sigma). Haspin-kd activity was assayed with 3 µM Histone H3 (1-21) peptide, a specific Haspin substrate, ([…]), in Buffer H (MOPS 25 mM pH 7.5; 10 mM MgCl2).

[3] = biological target: SsGSK-3α/β; experiment: protein kinase assay, [γ-33P] ATP; format: biochemical, porcine; conditions: 15 μM ATP; GS-1 substrate; >10 = inhibitory but IC50 > 10 μM
Protocol: as §1, §2
GSK-3α/β (porcine brain, native) was assayed, as described for CDK5/p25 but in Buffer A and using a GSK-3 specific substrate (GS-1: […]pEDEEE) (pS stands for phosphorylated serine). GS-1 was synthesized by Millegen (Labege, France).

T1 sequence (Q00535 whole entry): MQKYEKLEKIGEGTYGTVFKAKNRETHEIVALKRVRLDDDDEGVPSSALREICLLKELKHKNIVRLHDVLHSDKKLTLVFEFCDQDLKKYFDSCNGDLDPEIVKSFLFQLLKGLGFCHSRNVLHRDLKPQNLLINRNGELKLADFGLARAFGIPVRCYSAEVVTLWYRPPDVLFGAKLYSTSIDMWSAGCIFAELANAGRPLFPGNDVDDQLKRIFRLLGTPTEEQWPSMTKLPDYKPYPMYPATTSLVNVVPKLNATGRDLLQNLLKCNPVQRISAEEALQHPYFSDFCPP
T1 sequence (Q15078 99-307 partner limits assumed): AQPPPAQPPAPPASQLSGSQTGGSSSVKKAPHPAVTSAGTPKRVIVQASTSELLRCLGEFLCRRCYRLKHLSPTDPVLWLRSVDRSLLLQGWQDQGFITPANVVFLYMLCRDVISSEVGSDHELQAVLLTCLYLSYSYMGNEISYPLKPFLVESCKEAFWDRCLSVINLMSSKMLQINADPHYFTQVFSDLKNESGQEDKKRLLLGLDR

IC50 [1] | IC50 [2] | IC50 [3] | melting point | SMILES
1.1 µM | > 10 µM | > 10 µM | 245 to 256 °C | O=C1/C(=C/c2ccc3c(c2)OCO3)SC(=S)N1CCCCNCc1ccc2c(c1)OCO2 [Compound 9h, (5Z)3-[4-(1,3-Benzodioxol-5-ylmethylamino)butyl]-5-(1,3-benzodioxol-5-ylmethylene)-2-thioxo-1,3-thiazolidin-4-one]
1.3 µM | > 10 µM | > 10 µM | 253 to 257 °C | O=C1/C(=C/c2ccc3c(c2)OCCO3)SC(=S)N1CCCCNCc1ccc2c(c1)OCO2 [Compound 9i, (5Z)3-[4-(1,3-Benzodioxol-5-ylmethylamino)butyl]-5-(2,3-dihydro-1,4-benzodioxin-6-ylmethylene)-2-thioxo-1,3-thiazolidin-4-one]
> 10 µM | > 10 µM | > 10 µM | – | O=C1/C(=C/c2ccc(O)cc2)SC(=S)N1CCCCNCc1ccc2c(c1)OCO2 [Compound 9j, (5Z)3-[4-(1,3-Benzodioxol-5-ylmethylamino)butyl]-5-(4-hydroxy-benzylidene)-2-thioxo-1,3-thiazolidin-4-one]
– | > 10 µM | > 10 µM | 202 to 204 °C | COc1cc(/C=C2\SC(=S)N(CCCCNCc3ccc4c(c3)OCCO4)C2=O)ccc1O [Compound 9n, (5Z)3-[4-(2,3-Dihydro-benzo[1,4]dioxin-6-ylmethylamino)butyl]-5-(4-hydroxy-3-methoxybenzylidene)-2-thioxo-1,3-thiazolidin-4-one]

Source: paper PMC6332318, “Synthetic Development of New 3-(4-Arylmethylamino)butyl-5-arylidene-rhodanines under Microwave Irradiation and Their Effects on Tumor Cell Lines and against Protein Kinases” (Molecules, 2015)
